Test results: ChEMBL document CHEMBL1201862, “PubChem BioAssay data set” (2004)
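Step 1: Grow cells in 96-well plates. Step 2: Expose to compound for 48 hours at 5 concentrations. Step 3: Interpolate endpoints linearly; if unreached, use highest concentration. Abbreviation: GI50, concentration required for 50% inhibition of growth.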 Active and inactive are the calls of the source. No stated cut-off is given here; in the data, active = GI50 up to about 1.1 µM and inactive = higher.

Assays:
Assay in all cases: growth of human tumour cells (NCI), 48 h
SR = test system: SR
RXF 393 = test system: RXF 393
CCRF-CEM = test system: CCRF-CEM
NCI-H522 = test system: NCI-H522
A498 = test system: A498
ACHN = test system: ACHN
CAKI-1 = test system: CAKI-1
A549 = test system: A549
SF-268 = test system: SF-268
SK-MEL-5 = test system: SK-MEL-5
KM12 = test system: KM12
HT-29 = test system: HT-29
OVCAR-5 = test system: OVCAR-5
SF-295 = test system: SF-295
EKVX = test system: EKVX
OVCAR-3 = test system: OVCAR-3
MDA-MB-435 = test system: MDA-MB-435
TK-10 = test system: TK-10
DU-145 = test system: DU-145

Row | SMILES | GI50 (SR) | GI50 (RXF 393) | GI50 (CCRF-CEM) | GI50 (NCI-H522) | GI50 (A498) | GI50 (ACHN) | GI50 (CAKI-1) | GI50 (A549) | GI50 (SF-268) | GI50 (SK-MEL-5) | GI50 (KM12) | GI50 (HT-29) | GI50 (OVCAR-5) | GI50 (SF-295) | GI50 (EKVX) | GI50 (OVCAR-3) | GI50 (MDA-MB-435) | GI50 (TK-10) | GI50 (DU-145)
1 | CC(=O)OCC(OC(C)=O)C(OC(C)=O)C(OC(C)=O)C(=O)CNn1c(-c2ccccc2Cl)nc2ccc(Br)cc2c1=O (configuration not stated) | 43.8 µM (inactive) | 67 µM (inactive) | 42.5 µM (inactive) | 33.2 µM (inactive) | 55.7 µM (inactive) | > 100 µM (inactive) | 38.3 µM (inactive) | > 100 µM (inactive) | > 100 µM (inactive) | 57.5 µM (inactive) | > 100 µM (inactive) | 96.4 µM (inactive) | > 100 µM (inactive) | > 100 µM (inactive) | > 100 µM (inactive) | 62.2 µM (inactive) | – | – | –
2 | O=C(c1ccccc1)N(C(=O)c1ccccc1)c1nc(SCc2ccccc2)ns1 | 22.2 µM (inactive) | 31.7 µM (inactive) | 25.6 µM (inactive) | 20 µM (inactive) | 27.9 µM (inactive) | 41.6 µM (inactive) | 38.2 µM (inactive) | 38.5 µM (inactive) | 30.8 µM (inactive) | 16.2 µM (inactive) | 34 µM (inactive) | 25.5 µM (inactive) | 33.7 µM (inactive) | 25.1 µM (inactive) | 25.7 µM (inactive) | 22.3 µM (inactive) | 29.4 µM (inactive) | 25.9 µM (inactive) | 30.9 µM (inactive)
3 | CC(O)(/C=C/c1ccccc1)P(=O)(O)c1ccccc1 (configuration not stated) | > 100 µM (inactive) | > 100 µM (inactive) | – | > 100 µM (inactive) | > 100 µM (inactive) | > 100 µM (inactive) | > 100 µM (inactive) | > 100 µM (inactive) | > 100 µM (inactive) | > 100 µM (inactive) | > 100 µM (inactive) | > 100 µM (inactive) | > 100 µM (inactive) | > 100 µM (inactive) | > 100 µM (inactive) | > 100 µM (inactive) | > 100 µM (inactive) | > 100 µM (inactive) | > 100 µM (inactive)
4 | N#CC(C#N)=Cc1cccc(Oc2ccccc2)c1 | 8.93 µM (inactive) | 17.7 µM (inactive) | 20.6 µM (inactive) | 21.2 µM (inactive) | > 63.2 µM (inactive) | 18.2 µM (inactive) | 25.6 µM (inactive) | 70.3 µM (inactive) | 19.1 µM (inactive) | 18.9 µM (inactive) | 22.3 µM (inactive) | 22.7 µM (inactive) | > 67.1 µM (inactive) | 20.2 µM (inactive) | 54.2 µM (inactive) | 23 µM (inactive) | – | 31.7 µM (inactive) | –
5 | CC(C)NC(=O)O/N=C1\CCC2[C@@H]3CC=C4C[C@@H](OC(=O)NC(C)C)CC[C@]4(C)C3CC[C@]12C (some centres not stated) | 1.2 µM (inactive) | 1.53 µM (inactive) | 1.24 µM (inactive) | 1.53 µM (inactive) | 6.89 µM (inactive) | 0.971 µM (active) | 1.44 µM (inactive) | 1.47 µM (inactive) | 1.49 µM (inactive) | 0.425 µM (active) | 1.68 µM (inactive) | 2.34 µM (inactive) | 0.748 µM (active) | 1.54 µM (inactive) | 1.28 µM (inactive) | 1.08 µM (active) | – | 1.66 µM (inactive) | –
6 | CCC1(CN(C)C)CC/C(=C\c2ccc(OC)c(OC)c2)C1=O (configuration not stated) | < 0.01 µM (active) | > 100 µM (inactive) | > 68.9 µM (inactive) | 64.1 µM (inactive) | 88.7 µM (inactive) | > 100 µM (inactive) | 74.5 µM (inactive) | > 100 µM (inactive) | > 100 µM (inactive) | > 74.3 µM (inactive) | > 100 µM (inactive) | 58.2 µM (inactive) | > 69.5 µM (inactive) | > 100 µM (inactive) | > 54.6 µM (inactive) | 97.9 µM (inactive) | – | > 100 µM (inactive) | –
7 | O=C1NC(=O)C2C1N(Cc1ccccc1)C(=O)N2Cc1ccccc1 (configuration not stated) | > 100 µM (inactive) | > 100 µM (inactive) | > 100 µM (inactive) | > 100 µM (inactive) | > 100 µM (inactive) | > 100 µM (inactive) | > 100 µM (inactive) | > 100 µM (inactive) | > 100 µM (inactive) | > 100 µM (inactive) | > 100 µM (inactive) | > 100 µM (inactive) | > 100 µM (inactive) | > 100 µM (inactive) | > 100 µM (inactive) | > 100 µM (inactive) | – | > 100 µM (inactive) | –
8 | O=C(NC1CCC[C@H]1OC(=O)c1ccccc1)c1ccccc1 (some centres not stated) | 47.2 µM (inactive) | > 100 µM (inactive) | > 100 µM (inactive) | – | 33.1 µM (inactive) | > 10 µM (inactive) | 85.7 µM (inactive) | 40.4 µM (inactive) | 86.5 µM (inactive) | 37.2 µM (inactive) | 69.8 µM (inactive) | 39.7 µM (inactive) | > 100 µM (inactive) | > 100 µM (inactive) | > 100 µM (inactive) | 16.2 µM (inactive) | – | > 100 µM (inactive) | –
